# Values of other authors in PMC8698672, “Selective Anticancer and Antimicrobial Metallodrugs Based on Gold(III) Dithiocarbamate Complexes” (Biomedicines, 2021).
# Tested on: Caco-2/TC7 tumor cells
# Conditions: reference drugs, Caco-2 tumor cells; ref [27]; cited from earlier work
structure (smiles),measurement,value
"CC(=O)OC[C@H]1O[C@@H]([S-])[C@H](OC(C)=O)[C@@H](OC(C)=O)[C@@H]1OC(C)=O.CCP(CC)CC.[Au+] [auranofin, 2,3,4,6-tetra-o-acetyl-1-thio-b-D-glucopyranosato-(S)-triethylphosphine gold(I)]",IC50,2.1 ± 0.4 µM
